Read-outs that look alike come from different tables or passages of the source.
Columns and labels:
[1] = Wet milling of chlorothalonil with 0.5-0.6 mm cerium-doped zirconium oxide beads, particle size; format: physicochemical
Method: The laboratory-sized vertical mill was provided by CB Mills, model# L-3-J. The mill has a 2 liter capacity and is jacketed for cooling. Unless otherwise specified, ambient water was cycled through the mill cooling jacket during operation. The internal dimensions are 3.9″ diameter by 9.1″ height. The mill uses a standard 3×3″ disk agitator (mild steel) on a stainless steel shaft, and it operates at 2,620 rpm.
The media used in this Example was 0.4-0.5 mm zirconium silicate beads supplied by CB Mills. All particle size determinations were made with a Sedigraph™ 5100T manufactured by Micromeritics, which uses x-ray detection and bases calculations of size on Stokes' Law.
The same mill and conditions were used in this experiment as in experiment 1. However, the grinding media was 0.5-0.6 mm cerium-doped zirconium oxide beads obtained from CB Mills. The density of the cerium doped zirconium oxide is ˜6.0 g/cm^3. […] The total batch weight was about 600 g.

[2] = treated wood; cited from earlier work
[3] = 0.5-0.6 mm cerium-doped zirconium oxide, milling time 0 min
[4] = 0.5-0.6 mm cerium-doped zirconium oxide, milling time 90 min
[5] = 0.5-0.6 mm cerium-doped zirconium oxide, milling time 240 min
[6] = 0.5 mm zirconia milling media, in 90 minutes
[7] = 0.5 mm zirconia milling media, in 6 hours
[8] = 0.4-0.5 mm zirconium silicate, milling time 0 min
[9] = 0.4-0.5 mm zirconium silicate, milling time 30 min
[10] = 0.4-0.5 mm zirconium silicate, milling time 60 min
[11] = 0.4-0.5 mm zirconium silicate, milling time 90 min
[12] = 0.4-0.5 mm zirconium silicate, milling time 120 min
[13] = 0.4-0.5 mm zirconium silicate, milling time 150 min
[14] = 0.4-0.5 mm zirconium silicate, milling time 180 min
[15] = 0.4-0.5 mm zirconium silicate, milling time 270 min
[16] = 0.4-0.5 mm zirconium silicate, milling time 450 min

Which “Particle Size Data-Volume % With Diamter Greater Than 1 μm” value [1, 3] does the source give for `N#Cc1c(Cl)c(Cl)c(Cl)c(C#N)c1Cl` [chlorothalonil] here?
Its value is 92 Volume %.

And the “Particle Size Data-Volume % With Diamter Greater Than 2 μm” value [1, 3]?
The value was 77 Volume %.

What about the “Particle Size Data-Volume % With Diamter Greater Than 5 μm” value [1, 3] of the same compound?
Its value is 30 Volume %.

What about the “Particle Size Data-Volume % With Diamter Greater Than 10 μm” value [1, 3] of the same compound?
Its value is 8 Volume %.

What about the “Particle Size Data-Volume % With Diamter Greater Than 0.4 μm” value [1, 4] of the same compound?
The value was 22 Volume %.

What about the “Particle Size Data-Volume % With Diamter Greater Than 1 μm” value [1, 4] of the same compound?
The value was 3 Volume %.

What about the “Particle Size Data-Volume % With Diamter Greater Than 2 μm” value [1, 4] of the same compound?
Its value is 3 Volume %.

What about the “Particle Size Data-Volume % With Diamter Greater Than 5 μm” value [1, 4] of the same compound?
Its value is 3 Volume %.

What about the “Particle Size Data-Volume % With Diamter Greater Than 10 μm” value [1, 4] of the same compound?
Its value is 3 Volume %.

What about the d50 [1, 4] of the same compound?
Its d50 is 0.31 μm.

And the “Particle Size Data-Volume % With Diamter Greater Than 0.2 μm” value [1, 5]?
Its value is 51 Volume %.

What about the “Particle Size Data-Volume % With Diamter Greater Than 0.4 μm” value [1, 5] of the same compound?
The value was 3 Volume %.

And the “Particle Size Data-Volume % With Diamter Greater Than 1 μm” value [1, 5]?
Its value is 3 Volume %.

What about the “Particle Size Data-Volume % With Diamter Greater Than 2 μm” value [1, 5] of the same compound?
Its value is 2 Volume %.

And the “Particle Size Data-Volume % With Diamter Greater Than 5 μm” value [1, 5]?
Its value is 1 Volume %.

What about the “Particle Size Data-Volume % With Diamter Greater Than 10 μm” value [1, 5] of the same compound?
The value was 0 Volume %.

And the d50 [1, 5]?
The d50 was 0.21 μm.

And the d50 [1, 6]?
The d50 was “less than 1 micron”.

And the d95 [1, 6]?
The d95 was “less than 1 micron”.

And the d50 [1, 7]?
The d50 was “less than 0.3 microns”.

And the d95 [1, 7]?
The d95 was “less than 0.4 microns”.

What about the d90 (0.4-0.5 mm zirconium silicate, at 60 minutes) of the same compound?
Its d90 is “about 2 microns”.

And the “Particle Size Data-Volume % With Diamter Greater Than 2 μm” value [8]?
The value was 95 Volume %.

What about the “Particle Size Data-Volume % With Diamter Greater Than 5 μm” value [8] of the same compound?
Its value is 48 Volume %.

And the “Particle Size Data-Volume % With Diamter Greater Than 10 μm” value [8]?
Its value is 10 Volume %.

And the d50 [8]?
Its d50 is 4.9 μm.

What about the “Particle Size Data-Volume % With Diamter Greater Than 1 μm” value [9] of the same compound?
Its value is 68 Volume %.

What about the “Particle Size Data-Volume % With Diamter Greater Than 2 μm” value [9] of the same compound?
The value was 21 Volume %.

And the “Particle Size Data-Volume % With Diamter Greater Than 5 μm” value [9]?
The value was 4 Volume %.

And the “Particle Size Data-Volume % With Diamter Greater Than 10 μm” value [9]?
The value was 0 Volume %.

What about the d50 [9] of the same compound?
Its d50 is 1.3 μm.

And the “Particle Size Data-Volume % With Diamter Greater Than 1 μm” value [10]?
The value was 50 Volume %.

What about the “Particle Size Data-Volume % With Diamter Greater Than 2 μm” value [10] of the same compound?
The value was 11 Volume %.

What about the “Particle Size Data-Volume % With Diamter Greater Than 5 μm” value [10] of the same compound?
The value was 2 Volume %.

What about the “Particle Size Data-Volume % With Diamter Greater Than 10 μm” value [10] of the same compound?
Its value is 4 Volume %.

And the d50 [10]?
The d50 was 1.0 μm.

What about the “Particle Size Data-Volume % With Diamter Greater Than 1 μm” value [11] of the same compound?
The value was 94 Volume %.

What about the “Particle Size Data-Volume % With Diamter Greater Than 2 μm” value [11] of the same compound?
Its value is 22 Volume %.

And the “Particle Size Data-Volume % With Diamter Greater Than 5 μm” value [11]?
Its value is 23 Volume %.

And the “Particle Size Data-Volume % With Diamter Greater Than 10 μm” value [11]?
The value was 18 Volume %.

And the d50 [11]?
Its d50 is 1.4 μm.

What about the “Particle Size Data-Volume % With Diamter Greater Than 2 μm” value [12] of the same compound?
Its value is 4 Volume %.

And the “Particle Size Data-Volume % With Diamter Greater Than 5 μm” value [12]?
Its value is 0 Volume %.

And the “Particle Size Data-Volume % With Diamter Greater Than 10 μm” value [12]?
Its value is 2 Volume %.

And the “Particle Size Data-Volume % With Diamter Greater Than 1 μm” value [13]?
The value was 58 Volume %.

And the “Particle Size Data-Volume % With Diamter Greater Than 2 μm” value [13]?
The value was 6 Volume %.

What about the “Particle Size Data-Volume % With Diamter Greater Than 5 μm” value [13] of the same compound?
The value was 2 Volume %.

What about the “Particle Size Data-Volume % With Diamter Greater Than 10 μm” value [13] of the same compound?
The value was 0 Volume %.

What about the “Particle Size Data-Volume % With Diamter Greater Than 1 μm” value [14] of the same compound?
Its value is 53 Volume %.

And the “Particle Size Data-Volume % With Diamter Greater Than 2 μm” value [14]?
The value was 7 Volume %.

And the “Particle Size Data-Volume % With Diamter Greater Than 5 μm” value [14]?
The value was 2 Volume %.

What about the “Particle Size Data-Volume % With Diamter Greater Than 10 μm” value [14] of the same compound?
The value was 2 Volume %.

What about the “Particle Size Data-Volume % With Diamter Greater Than 1 μm” value [15] of the same compound?
The value was 54 Volume %.

And the “Particle Size Data-Volume % With Diamter Greater Than 2 μm” value [15]?
The value was 8 Volume %.

And the “Particle Size Data-Volume % With Diamter Greater Than 5 μm” value [15]?
The value was 0 Volume %.

What about the “Particle Size Data-Volume % With Diamter Greater Than 10 μm” value [15] of the same compound?
Its value is 2 Volume %.

And the “Particle Size Data-Volume % With Diamter Greater Than 1 μm” value [16]?
Its value is 56 Volume %.

What about the “Particle Size Data-Volume % With Diamter Greater Than 2 μm” value [16] of the same compound?
Its value is 21 Volume %.

And the “Particle Size Data-Volume % With Diamter Greater Than 5 μm” value [16]?
Its value is 8 Volume %.

What about the “Particle Size Data-Volume % With Diamter Greater Than 10 μm” value [16] of the same compound?
Its value is 12 Volume %.

And the d50 (0.4-0.5 mm zirconium silicate, within about one hour)?
The d50 was roughly 1 micron.

And the starting particle size (before wet milling)?
Its starting particle size is 3-4 microns.

For copper citrate, which “copper in leachate relative to CCA baseline” value [2] is on record?
The value was “over fifteen times the baseline concentration”.
